Values joined by “and” are separate entries in the source; they are usually repeats but may differ in a detail not shown here. Identical values can stand only once. Inconclusive results and toxic doses are left out.
System: P388 leukemia ip, CD2F1 mice, survival T/C
Experiment: NCI In Vivo Anticancer Drug Screen. Data for tumor model P388 Leukemia (intraperitoneal) in CD2F1 (CDF1) mice
Conditions: endpoint: median survival time, higher = longer survival
Summary of the method: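 Mice carrying the transplanted tumor received test compound or vehicle. Survival was recorded in each group, and the value is the treated-group measurement divided by that of the vehicle-treated control group.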

[1] = dose: 50.0 mg/kg/injection, schedule: Q01DX009 (ip), vehicle: saline
[2] = dose: 100.0 mg/kg/injection, schedule: Q01DX009 (ip), vehicle: saline
[3] = dose: 200.0 mg/kg/injection, schedule: Q01DX009 (ip), vehicle: saline
[4] = dose: 100.0 mg/kg/injection, schedule: Q04DX003 (ip), vehicle: Klucel (hydroxypropylcellulose) (HPC)
[5] = dose: 200.0 mg/kg/injection, schedule: Q04DX003 (ip), vehicle: Klucel (hydroxypropylcellulose) (HPC)
[6] = dose: 400.0 mg/kg/injection, schedule: Q04DX003 (ip), vehicle: Klucel (hydroxypropylcellulose) (HPC)
[7] = dose: 100.0 mg/kg/injection, schedule: Q04DX003 (ip), vehicle: saline with Tween-80
[8] = dose: 200.0 mg/kg/injection, schedule: Q04DX003 (ip), vehicle: saline with Tween-80
[9] = dose: 400.0 mg/kg/injection, schedule: Q04DX003 (ip), vehicle: saline with Tween-80
[10] = dose: 60.0 mg/kg/injection, schedule: Q01DX005 (ip), vehicle: saline with Tween-80
[11] = dose: 120.0 mg/kg/injection, schedule: Q01DX005 (ip), vehicle: saline with Tween-80
[12] = dose: 240.0 mg/kg/injection, schedule: Q01DX005 (ip), vehicle: saline with Tween-80
[13] = dose: 25.0 mg/kg/injection, schedule: Q01DX009 (ip), vehicle: saline with Tween-80
[14] = dose: 50.0 mg/kg/injection, schedule: Q01DX009 (ip), vehicle: saline with Tween-80
[15] = dose: 100.0 mg/kg/injection, schedule: Q01DX009 (ip), vehicle: saline with Tween-80
[16] = dose: 200.0 mg/kg/injection, schedule: Q01DX009 (ip), vehicle: saline with Tween-80
[17] = dose: 50.0 mg/kg/injection, schedule: Q01DX005 (ip), vehicle: saline with Tween-80
[18] = dose: 100.0 mg/kg/injection, schedule: Q01DX005 (ip), vehicle: saline with Tween-80
[19] = dose: 200.0 mg/kg/injection, schedule: Q01DX005 (ip), vehicle: saline with Tween-80

O=C1CC(C2(c3ccc4c(c3)OCO4)SCCCS2)CO1 (stereo not drawn)
T/C (dose: 100.0 mg/kg/injection, schedule: Q01DX001 (ip), vehicle: Klucel (hydroxypropylcellulose) (HPC)): 101 % of control
T/C (dose: 200.0 mg/kg/injection, schedule: Q01DX001 (ip), vehicle: Klucel (hydroxypropylcellulose) (HPC)): 106 % of control
T/C (dose: 400.0 mg/kg/injection, schedule: Q01DX001 (ip), vehicle: Klucel (hydroxypropylcellulose) (HPC)): 99 % of control

O=C(c1ccccc1)N(CCO)CCO
T/C [1]: 108 % of control
T/C [2]: 94 % of control
T/C [3]: 101 % of control

Cc1cc(=O)[nH]c2c(C)cccc12
T/C [4]: 96 % of control
T/C [5]: 98 % of control
T/C [6]: 99 % of control

OCC1OC2NC(=S)OC2C1O (stereo not drawn)
T/C [1]: 100 % of control
T/C [2]: 100 % of control
T/C [3]: 95 % of control

Nc1ccccc1OCCCn1cc(-c2ccc(Cl)c(Cl)c2)c(N)nc1=O
T/C (dose: 7.5 mg/kg/injection, schedule: Q01DX005 (ip), vehicle: Klucel (hydroxypropylcellulose) (HPC)): 103 % of control
T/C (dose: 15.0 mg/kg/injection, schedule: Q01DX005 (ip), vehicle: Klucel (hydroxypropylcellulose) (HPC)): 96 % of control
T/C (dose: 30.0 mg/kg/injection, schedule: Q01DX005 (ip), vehicle: Klucel (hydroxypropylcellulose) (HPC)): 93 % of control

CC(C)(C)NC(=O)C(Cl)Cl
T/C (dose: 50.0 mg/kg/injection, schedule: Q01DX001 (ip), vehicle: saline with Tween-80): 100 % of control
T/C (dose: 100.0 mg/kg/injection, schedule: Q01DX001 (ip), vehicle: saline with Tween-80): 100 % of control
T/C (dose: 200.0 mg/kg/injection, schedule: Q01DX001 (ip), vehicle: saline with Tween-80): 95 % of control

BrC1C2CCC3OC3CCC12 (stereo not drawn)
T/C [7]: 101 % of control
T/C [8]: 92 % of control
T/C [9]: 97 % of control

COC(=O)C1(CC(=O)CC(=O)CC2(C(=O)OC)NC(=S)NC(=O)C2C#N)NC(=S)NC(=O)C1C#N (stereo not drawn)
T/C [10]: 106 % of control
T/C [11]: 100 % of control
T/C [12]: 100 % of control

CC(C)CC(NC(=O)CN)C(=O)O (stereo not drawn)
T/C (dose: 25.0 mg/kg/injection, schedule: Q01DX005 (ip), vehicle: saline): 103 % of control
T/C [13]: 95 % of control
T/C (dose: 50.0 mg/kg/injection, schedule: Q01DX005 (ip), vehicle: saline): 101 % of control
T/C [14]: 89 % of control
T/C (dose: 100.0 mg/kg/injection, schedule: Q01DX005 (ip), vehicle: saline): 103 % of control
T/C [15]: 88 % of control
T/C (dose: 200.0 mg/kg/injection, schedule: Q01DX005 (ip), vehicle: saline): 99 % of control
T/C [16]: 91 % of control

O=C(CCC(=O)Nc1ccc(Cl)cc1Cl)CC(=O)c1ccco1
T/C [10]: 102 % of control
T/C [11]: 105 % of control
T/C [12]: 102 % of control

CC1CCCCC1(O)Cc1ccccc1 (stereo not drawn)
T/C (dose: 50.0 mg/kg/injection, schedule: Q01DX005 (ip), vehicle: distilled water + alcohol): 108 % of control
T/C (dose: 100.0 mg/kg/injection, schedule: Q01DX005 (ip), vehicle: distilled water + alcohol): 101 % of control
T/C (dose: 200.0 mg/kg/injection, schedule: Q01DX005 (ip), vehicle: distilled water + alcohol): 105 % of control

CCOc1c(N=Nc2ccc(C)cc2)c(C)nn1C(N)=S
T/C (dose: 15.0 mg/kg/injection, schedule: Q01DX005 (ip), vehicle: Klucel + Tween-80): 103 % of control
T/C (dose: 30.0 mg/kg/injection, schedule: Q01DX005 (ip), vehicle: Klucel + Tween-80): 105 % of control

Cc1ccc2c(c1)C1(SC(C)C(=O)N1c1ccc(F)cc1)C(=O)N2 (stereo not drawn)
T/C [10]: 89 % of control
T/C [11]: 90 % of control
T/C [12]: 87 % of control

CC(C)[NH-].CC(C)[NH-].O.O.[Cl][Pt+2][Cl]
T/C (dose: 8.0 mg/kg/injection, schedule: Q01DX009 (ip), vehicle: saline with Tween-80): 167 % of control
T/C (dose: 12.5 mg/kg/injection, schedule: Q01DX009 (ip), vehicle: saline with Tween-80): 184 % of control
T/C (dose: 18.0 mg/kg/injection, schedule: Q01DX009 (ip), vehicle: saline with Tween-80): 202 % of control

O=c1[nH]nc(SCc2ccccc2)c2nncn12
T/C [17]: 97 % of control
T/C [18]: 92 % of control
T/C [19]: 95 % of control

Cc1ccccc1N1C(=O)[N+](C)(C)N=C1[O-]
T/C (dose: 100.0 mg/kg/injection, schedule: Q04DX003 (ip), vehicle: saline): 109 % of control and 113 % of control
T/C (dose: 200.0 mg/kg/injection, schedule: Q04DX003 (ip), vehicle: saline): 99 % of control and 113 % of control
T/C (dose: 400.0 mg/kg/injection, schedule: Q04DX003 (ip), vehicle: saline): 91 % of control

NC1=C(O)C(=O)C(c2ccccc2O)O1 (stereo not drawn)
T/C (dose: 30.0 mg/kg/injection, schedule: Q01DX005 (ip), vehicle: suspension in saline): 104 % of control
T/C (dose: 60.0 mg/kg/injection, schedule: Q01DX005 (ip), vehicle: suspension in saline): 103 % of control
T/C (dose: 120.0 mg/kg/injection, schedule: Q01DX005 (ip), vehicle: suspension in saline): 89 % of control and 97 % of control
T/C (dose: 240.0 mg/kg/injection, schedule: Q01DX005 (ip), vehicle: suspension in saline): 88 % of control

CC(=O)NS(=O)(=O)c1ccc(C)cc1
T/C [4]: 106 % of control
T/C [5]: 107 % of control
T/C [6]: 100 % of control

COc1ccc(NC(=O)C#N)cc1
T/C (dose: 7.5 mg/kg/injection, schedule: Q01DX005 (ip), vehicle: saline with Tween-80): 105 % of control
T/C (dose: 15.0 mg/kg/injection, schedule: Q01DX005 (ip), vehicle: saline with Tween-80): 113 % of control

COC(=O)C#CBr
T/C (dose: 3.13 mg/kg/injection, schedule: Q04DX003 (ip), vehicle: saline): 100 % of control
T/C (dose: 6.25 mg/kg/injection, schedule: Q04DX003 (ip), vehicle: saline): 100 % of control

CSc1nnc2sc3cc(C)ccc3n12
T/C (dose: 50.0 mg/kg/injection, schedule: Q01DX009 (ip), vehicle: Klucel (hydroxypropylcellulose) (HPC)): 102 % of control
T/C (dose: 100.0 mg/kg/injection, schedule: Q01DX009 (ip), vehicle: Klucel (hydroxypropylcellulose) (HPC)): 103 % of control
T/C (dose: 200.0 mg/kg/injection, schedule: Q01DX009 (ip), vehicle: Klucel (hydroxypropylcellulose) (HPC)): 102 % of control

Cn1c(=O)c2cc(C#N)c(N)nc2n(C)c1=O
T/C (dose: 75.0 mg/kg/injection, schedule: Q01DX009 (ip), vehicle: saline with Tween-80): 104 % of control
T/C (dose: 150.0 mg/kg/injection, schedule: Q01DX009 (ip), vehicle: saline with Tween-80): 96 % of control
T/C (dose: 300.0 mg/kg/injection, schedule: Q01DX009 (ip), vehicle: saline with Tween-80): 93 % of control

CCN(CC)Cc1ccc2ccccc2c1O
T/C [14]: 103 % of control
T/C [15]: 89 % of control
T/C [16]: 92 % of control

Clc1ccc2[nH]c3nc4ccccc4nc3c2c1
T/C [13]: 100 % of control
T/C [14]: 105 % of control
T/C [7]: 90 % of control
T/C [8]: 100 % of control
T/C [9]: 104 % of control

Cc1ccccc1C(=O)NC1c2ccccc2Oc2ccccc21
T/C [17]: 100 % of control
T/C [18]: 100 % of control
T/C [19]: 100 % of control

CCCCCCCCCCCCCCCCCC(=O)OCC(=O)OCC(=O)[C@]1(O)Cc2c(O)c3c(c(O)c2[C@@H](OC2CC(N)C(O)C(C)O2)C1)C(=O)c1c(OC)cccc1C3=O (stereo partly drawn)
T/C (dose: 0.39 mg/kg/injection, schedule: Q01DX009 (ip), vehicle: water): 150 % of control
T/C (dose: 0.78 mg/kg/injection, schedule: Q01DX009 (ip), vehicle: water): 157 % of control
T/C (dose: 1.56 mg/kg/injection, schedule: Q01DX009 (ip), vehicle: water): 180 % of control and 194 % of control
T/C (dose: 3.13 mg/kg/injection, schedule: Q01DX009 (ip), vehicle: water): 200 % of control and 203 % of control
T/C (dose: 6.25 mg/kg/injection, schedule: Q01DX009 (ip), vehicle: water): 93 % of control and 98 % of control

CC(Cc1ccccc1)NN1CCOC(c2ccccc2)C1C (stereo not drawn)
T/C (dose: 100.0 mg/kg/injection, schedule: Q04DX002 (ip), vehicle: saline): 102 % of control
T/C (dose: 200.0 mg/kg/injection, schedule: Q04DX002 (ip), vehicle: saline): 107 % of control
T/C (dose: 400.0 mg/kg/injection, schedule: Q04DX002 (ip), vehicle: saline): 101 % of control

From PubChem BioAssay AID330 (DTP/NCI, 2004)
